Assay results taken from patent EP0394553A2, “Use of fluorine containing pyridone carboxylic acid derivatives for preparing a medicament for the treatment of HIV infections” (DAIICHI PHARMACEUTICAL CO., LTD., priority 1989, dated 1990).
Where two headings read alike, the source gives them in different places.

Experiments:
[1] = tested on: HIV (LAV 1); test: microbe, parasite or virus in culture; settings: for Viable cell count / Viral antigen-positive cell percentage: 4-day addition; for viability at 1 µg/mL / viability at 2.5 µg/mL / viability at 5 µg/mL / viability at 10 µg/mL: Human immunodeficiency virus 1, CCRF-CEM
Method in brief: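 CEM cells were infected with HIV LAV 1 at MOI 0.05 and cultured with test substance at 10, 5, 2.5 or 1 mcg/ml, with medium exchanged periodically up to 30 days. Viable cell count and percentage were measured by trypan blue, and antigen-positive cells by immunofluorescence with anti-HIV antiserum, at 4–30 days. Values are means of two wells.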

[2] = in vivo; settings: mouse, po

SMILES: CCn1cc(C(=O)O)c(=O)c2cc(F)c(N3CCNCC3)cc21 [NFLX, 1-ethyl-6-fluoro-1,4-dihydro-4-oxo-7-(1-piperazinyl)-3-quinolinecarboxylic acid]
- Viable cell count ([1]; 1 mcg/ml, after 4 days): 230 × 10⁴ cells/ml
- Viral antigen-positive cell percentage ([1]; 1 mcg/ml, after 4 days): 88%
- Viable cell count ([1]; 1 mcg/ml, after 7 days): 52 × 10⁴ cells/ml
- Viral antigen-positive cell percentage ([1]; 1 mcg/ml, after 7 days): 75%
- Viable cell count ([1]; 1 mcg/ml, after 10 days): 26 × 10⁴ cells/ml
- Viable cell count ([1]; 1 mcg/ml, after 20 days): 0 × 10⁴ cells/ml
- Viable cell count ([1]; 1 mcg/ml, after 30 days): 0 × 10⁴ cells/ml
- Viable cell count ([1]; 2.5 mcg/ml, after 4 days): 240 × 10⁴ cells/ml
- Viral antigen-positive cell percentage ([1]; 2.5 mcg/ml, after 4 days): 93%
- Viable cell count ([1]; 2.5 mcg/ml, after 7 days): 59 × 10⁴ cells/ml
- Viral antigen-positive cell percentage ([1]; 2.5 mcg/ml, after 7 days): 55%
- Viable cell count ([1]; 2.5 mcg/ml, after 10 days): 40 × 10⁴ cells/ml
- Viable cell count ([1]; 2.5 mcg/ml, after 20 days): 2 × 10⁴ cells/ml
- Viable cell count ([1]; 2.5 mcg/ml, after 30 days): 70 × 10⁴ cells/ml
- Viral antigen-positive cell percentage ([1]; 2.5 mcg/ml, after 30 days): ≦1%
- Viable cell count ([1]; 5 mcg/ml, after 4 days): 230 × 10⁴ cells/ml
- Viral antigen-positive cell percentage ([1]; 5 mcg/ml, after 4 days): 83%
- Viable cell count ([1]; 5 mcg/ml, after 7 days): 84 × 10⁴ cells/ml
- Viral antigen-positive cell percentage ([1]; 5 mcg/ml, after 7 days): 65%
- Viable cell count ([1]; 5 mcg/ml, after 10 days): 86 × 10⁴ cells/ml
- Viable cell count ([1]; 5 mcg/ml, after 20 days): 28 × 10⁴ cells/ml
- Viable cell count ([1]; 5 mcg/ml, after 30 days): 330 × 10⁴ cells/ml
- Viral antigen-positive cell percentage ([1]; 5 mcg/ml, after 30 days): ≦1%
- Viable cell count ([1]; 10 mcg/ml, after 4 days): 180 × 10⁴ cells/ml
- Viral antigen-positive cell percentage ([1]; 10 mcg/ml, after 4 days): 92%
- Viable cell count ([1]; 10 mcg/ml, after 7 days): 60 × 10⁴ cells/ml
- Viral antigen-positive cell percentage ([1]; 10 mcg/ml, after 7 days): 63%
- Viable cell count ([1]; 10 mcg/ml, after 10 days): 250 × 10⁴ cells/ml
- Viral antigen-positive cell percentage ([1]; 10 mcg/ml, after 10 days): 50%
- Viable cell count ([1]; 10 mcg/ml, after 20 days): 370 × 10⁴ cells/ml
- Viral antigen-positive cell percentage ([1]; 10 mcg/ml, after 20 days): 4%
- Viable cell count ([1]; 10 mcg/ml, after 30 days): 400 × 10⁴ cells/ml
- Viral antigen-positive cell percentage ([1]; 10 mcg/ml, after 30 days): ≦1%
- viability at 1 µg/mL ([1]; 96 h, read-out: Viable cell percentage, 1 mcg/ml, 4-day addition, after 4 days): 94%
- viability at 2.5 µg/mL ([1]; 96 h, read-out: Viable cell percentage, 2.5 mcg/ml, 4-day addition, after 4 days): 94%
- viability at 5 µg/mL ([1]; 96 h, read-out: Viable cell percentage, 5 mcg/ml, 4-day addition, after 4 days): 94%
- viability at 10 µg/mL ([1]; 96 h, read-out: Viable cell percentage, 10 mcg/ml, 4-day addition, after 4 days): 92%
- viability at 1 µg/mL ([1]; read-out: Viable cell percentage, 1 mcg/ml, 4-day addition, after 7 days): 59%
- viability at 1 µg/mL ([1]; read-out: Viable cell percentage, 1 mcg/ml, 4-day addition, after 10 days): 30%
- viability at 1 µg/mL ([1]; read-out: Viable cell percentage, 1 mcg/ml, 4-day addition, after 20 days): 0%
- viability at 1 µg/mL ([1]; read-out: Viable cell percentage, 1 mcg/ml, 4-day addition, after 30 days): 0%
- viability at 2.5 µg/mL ([1]; read-out: Viable cell percentage, 2.5 mcg/ml, 4-day addition, after 7 days): 67%
- viability at 2.5 µg/mL ([1]; read-out: Viable cell percentage, 2.5 mcg/ml, 4-day addition, after 10 days): 47%
- viability at 2.5 µg/mL ([1]; read-out: Viable cell percentage, 2.5 mcg/ml, 4-day addition, after 20 days): 33%
- viability at 2.5 µg/mL ([1]; read-out: Viable cell percentage, 2.5 mcg/ml, 4-day addition, after 30 days): 96%
- viability at 5 µg/mL ([1]; read-out: Viable cell percentage, 5 mcg/ml, 4-day addition, after 7 days): 67%
- viability at 5 µg/mL ([1]; read-out: Viable cell percentage, 5 mcg/ml, 4-day addition, after 10 days): 61%
- viability at 5 µg/mL ([1]; read-out: Viable cell percentage, 5 mcg/ml, 4-day addition, after 20 days): 81%
- viability at 5 µg/mL ([1]; read-out: Viable cell percentage, 5 mcg/ml, 4-day addition, after 30 days): 95%
- viability at 10 µg/mL ([1]; read-out: Viable cell percentage, 10 mcg/ml, 4-day addition, after 7 days): 71%
- viability at 10 µg/mL ([1]; read-out: Viable cell percentage, 10 mcg/ml, 4-day addition, after 10 days): 91%
- viability at 10 µg/mL ([1]; read-out: Viable cell percentage, 10 mcg/ml, 4-day addition, after 20 days): 97%
- viability at 10 µg/mL ([1]; read-out: Viable cell percentage, 10 mcg/ml, 4-day addition, after 30 days): 94%
- LD50 [2]: ≥ 4000 mg/kg
